IC50, EC50 and CC50 data for nine molecules are collected here from US12252481B2, “Anti-viral compounds” (Aligos Therapeutics, Inc., priority 2021, dated 2025).

As usually defined, the IC50 is the concentration that gives 50% inhibition. Broadly, the EC50 is the concentration needed to bring the measured effect to its halfway point. One may read the CC50 as the concentration at which the toxic effect on the cells reaches its halfway point.

For series [1], the target named is T1, SARS-Cov-2 3CLpro (Severe acute respiratory syndrome coronavirus 2, UniProt P0DTD1).
T1 construct: 3CLpro and HRV3C was added using a Multidrop Combi
The experiment in a line: biochemical. As to conditions: read-out: SARS-Cov-2 IC50 (class).

Series [2] addresses T2, HRV3C (Human rhinovirus 14, UniProt P03303).
T2 construct: 3CLpro and HRV3C was added using a Multidrop Combi
The experiment in a line: biochemical. The arrangement: species or system HRV. As to conditions: read-out: HRV IC50 (bound).

Series [3] has as its system human beta-coronavirus OC43. The experiment in a line: OC43 coronavirus antiviral assay in HeLa cells (cytopathic effect, cell-titer-glo). It is filed as cell-based. As to conditions: 6 days at 33° C., read-out: EC50 (class). On the technique in general: Damage to the host cells serves as the signal in cytopathic effect assays.
Series [4] relates to SARS-CoV-2-GHB-03021/2020. It is filed as cell-based. The conditions noted are these: read-out: VeroE6 + CP (EC50).
In series [5] the test system is B.1.1.7 lineage SARS-CoV-2. The experiment in a line: microbe, parasite or virus in culture. It is filed as cell-based. The conditions noted are these: read-out: A549-dual_ACE2_TMPRSS2 (EC50).
The target of series [6] is T3, human cathepsin L (Homo sapiens, UniProt P07711).
T3 construct: purchased R&D Systems
T3 sequence (P07711 114-333): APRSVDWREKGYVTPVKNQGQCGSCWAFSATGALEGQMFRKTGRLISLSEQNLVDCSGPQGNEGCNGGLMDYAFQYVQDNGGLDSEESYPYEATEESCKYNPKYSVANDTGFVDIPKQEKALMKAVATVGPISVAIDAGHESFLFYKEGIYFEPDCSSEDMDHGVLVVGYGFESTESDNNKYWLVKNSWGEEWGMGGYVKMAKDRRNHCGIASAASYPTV
The experiment in a line: Cathepsin L assay (Z-FR-AMC fluorescence). It is filed as biochemical. As to conditions: 10 pM human cathepsin L, 30 mins preincubation, Z-FR-AMC 2 μM. In short, it runs like this:
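Human cathepsin L (10 pM) was preincubated 30 min with compound, then reactions were started with Z-FR-AMC substrate (2 μM final). AMC fluorescence (355/460 nm) was read every 2 min over 30 min. IC50 came from a four-parameter curve fit.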

The test system of series [7] is HeLa cells.
For series [8], the system named is Vero E6-eGFP cells. The conditions noted are these: read-out: VeroE6 + CP (CC50), absence of virus, numeric values.
For series [9], the system named is A549-dual_ACE2_TMPRSS2 cells.
For series [10], the system named is HeLa cells. Put plainly: Cytotoxicity in HeLa cells without OC43 virus (cell-titer-glo). The conditions noted are these: HeLa cells without OC43 virus.
Where [11] appears, read: 3CLpro, 30 mins preincubation, SAMDI-MS.
The mark [12] stands for this setting: HRV3C, 30 mins preincubation, SAMDI-MS.
Setting [13] is: read-out: A549-dual_ACE2_TMPRSS2 (CC50), assay medium without virus, MTS, numeric values.

SMILES strings stand for the structures. Read-outs that look alike come from different tables or passages of the source.

T2 sequence (P03303 1538-1719): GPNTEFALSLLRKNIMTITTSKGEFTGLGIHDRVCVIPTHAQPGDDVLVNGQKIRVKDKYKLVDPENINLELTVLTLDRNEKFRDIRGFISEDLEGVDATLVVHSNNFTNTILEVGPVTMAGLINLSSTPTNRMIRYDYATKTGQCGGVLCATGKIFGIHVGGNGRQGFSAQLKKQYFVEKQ

`Cc1cc(C(=O)N[C@H](C(=O)N2C[C@H]3[C@@H]([C@H]2C(=O)N[C@H](C#N)C[C@@H]2CCNC2=O)[C@H]2C=C[C@@H]3C2)C(C)(C)C)no1` [Example 4, (1R,2S,3S,6R,7S)—N-[(1S)-1-cyano-2-[(3S)-2-oxopyrrolidin-3-yl]ethyl]-4-[(2S)-3,3-dimethyl-2-[(5-methyl-1,2-oxazol-3-yl)formamido]butanoyl]-4-azatricyclo[5.2.1.0^{2,6}]dec-8-ene-3-carboxamide]: the 50% inhibitory concentration (IC50) in series [1] (setting [11]) was 0.02 to 0.2 µM; in series [2] (setting [12]), above 10 µM; in [6], at least 10 µM. The values for the EC50 in series [3], in series [4] and in series [5] were below 0.1 µM, 0.1 to 1 µM and 0.1 to 1 µM, respectively. The CC50 in [7] is above 100 µM; in [8] it was above 50 µM; in [9] (setting [13]), above 10 µM.
For the molecule `C#CC(C)(C)[C@H](NC(=O)C(F)(F)F)C(=O)N1C[C@H]2[C@@H]([C@H]1C(=O)N[C@H](C#N)C[C@@H]1CCNC1=O)[C@H]1C=C[C@@H]2C1` [Example 7, (1R,2S,3S,6R,7S)—N-[(1S)-1-cyano-2-[(3S)-2-oxopyrrolidin-3-yl]ethyl]-4-[(2S)-3,3-dimethyl-2-(2,2,2-trifluoroacetamido)pent-4-ynoyl]-4-azatricyclo[5.2.1.0^{2,6}]dec-8-ene-3-carboxamide], the IC50 is below 0.02 µM in [1], above 10 µM in [2] (setting [12]) and at least 10 µM in [6]. For the same molecule, the EC50 in series [3], in series [4] and in series [5] was below 0.1 µM each time. The CC50 is above 50 µM in [8], above 10 µM in series [9] (setting [13]) and above 100 µM in [10].
Regarding `CC1(C(=O)N[C@H](C(=O)N2C[C@H]3[C@@H]([C@H]2C(=O)N[C@H](C#N)C[C@@H]2CCNC2=O)[C@H]2C=C[C@@H]3C2)C(C)(C)C)CC1` [Compound 47, (1R,2S,3S,6R,7S)—N-[(1S)-1-cyano-2-[(3S)-2-oxopyrrolidin-3-yl]ethyl]-4-[(2S)-3,3-dimethyl-2-[(1-methylcyclopropyl)formamido]butanoyl]-4-azatricyclo[5.2.1.0^{2,6}]dec-8-ene-3-carboxamide], the IC50 was 0.02 to 0.2 µM in [1] (setting [11]), above 10 µM in [2] (setting [12]) and at least 10 µM in [6]. Further, in series [3], the EC50 fell in the range of 0.1 to 1 µM. Besides, the values for the half-maximal cytotoxic concentration (CC50) in series [7], in [8] and in series [9] (setting [13]) were above 100 µM, above 50 µM and above 10 µM, respectively.
Consider `C#CC(C)(C)[C@H](NC(=O)C1(F)CC1)C(=O)N1C[C@H]2[C@@H]([C@H]1C(=O)N[C@H](C#N)C[C@@H]1CCNC1=O)[C@H]1C=C[C@@H]2C1` [Compound 63, (1R,2S,3S,6R,7S)—N-[(1S)-1-cyano-2-[(3S)-2-oxopyrrolidin-3-yl]ethyl]-4-[(2S)-2-[(1-fluorocyclopropyl)formamido]-3,3-dimethylpent-4-ynoyl]-4-azatricyclo[5.2.1.0^{2,6}]dec-8-ene-3-carboxamide], for which the IC50 in series [1] (setting [11]) was below 0.02 µM; in series [2] (setting [12]) it was above 10 µM; in series [6], at least 10 µM. Also, the concentration for a half-maximal effect (EC50) in series [3] and in series [5] was below 0.1 µM throughout. The CC50 in [7] was above 100 µM; in series [9] (setting [13]), above 10 µM.
For `CC(C)(C)[C@H](NC(=O)C(F)(F)F)C(=O)N1C[C@H]2[C@@H]([C@H]1C(=O)N[C@H](C#N)CC1Cn3ncnc3NC1=O)[C@H]1C=C[C@@H]2C1` (stereo partly drawn) [Compound 51, (1R,2S,3S,6R,7S)—N-[(1S)-1-cyano-2-{5-oxo-4H,6H,7H-[1,2,4]triazolo[1,5-α]pyrimidin-6-yl}ethyl]-4-[(2S)-3,3-dimethyl-2-(2,2,2-trifluoroacetamido)butanoyl]-4-azatricyclo[5.2.1.0^{2,6}]dec-8-ene-3-carboxamide], the IC50 in series [1] is below 0.02 µM; in [2] (setting [12]) it was above 10 µM; in series [6], at least 10 µM. Besides, the EC50 fell in the range of 0.1 to 1 µM in [3] and 1 to 10 µM in [5]. In addition, the CC50 was above 50 µM in [8], above 10 µM in series [9] (setting [13]) and above 100 µM in [10].
With `N#C[C@H](C[C@@H]1CCNC1=O)NC(=O)[C@@H]1[C@@H]2[C@H](CN1C(=O)[C@@H]1C[C@]13CCCc1ccccc13)[C@@H]1C=C[C@H]2C1` (single isomer, unassigned) [Example 8], the 50% inhibitory concentration (IC50) is 0.02 to 0.2 µM in series [1] (setting [11]), above 10 µM in [2] (setting [12]) and at least 10 µM in series [6]. The figures for the half-maximal effective concentration (EC50) in series [3] and in series [5] were 0.1 to 1 µM and below 0.1 µM, respectively. Also, the results for the cytotoxic concentration (CC50) in series [7], in [8] and in series [9] (setting [13]) were above 100 µM, above 50 µM and above 10 µM, respectively.
Regarding `CC(C)(C)[C@H](NC(=O)C(F)(Cl)Cl)C(=O)N1C[C@H]2[C@@H]([C@H]1C(=O)N[C@H](C#N)C[C@@H]1CCNC1=O)[C@H]1C=C[C@@H]2C1` [Compound 48, (1R,2S,3S,6R,7S)—N-[(1S)-1-cyano-2-[(3S)-2-oxopyrrolidin-3-yl]ethyl]-4-[(2S)-2-(2,2-dichloro-2-fluoroacetamido)-3,3-dimethylbutanoyl]-4-azatricyclo[5.2.1.0^{2,6}]dec-8-ene-3-carboxamide], the IC50 in [1] is below 0.02 µM; in [2] (setting [12]), above 10 µM; in [6] it was at least 10 µM. The EC50 in series [3], in series [4] and in series [5] was below 0.1 µM in each case. Also, the half-maximal cytotoxic concentration (CC50) in series [8] was above 50 µM; in [9] (setting [13]), above 10 µM; in series [10], above 100 µM.
Turning to `C[C@@H](OC(C)(C)C)[C@H](NC(=O)C(F)(F)F)C(=O)N1C[C@H]2[C@@H]([C@H]1C(=O)N[C@H](C#N)C[C@@H]1CCNC1=O)[C@H]1C=C[C@@H]2C1` [Example 3, (1R,2S,3S,6R,7S)-4-[(2S,3R)-3-(tert-butoxy)-2-(2,2,2-trifluoroacetamido)butanoyl]-N-[(1S)-1-cyano-2-[(3S)-2-oxopyrrolidin-3-yl]ethyl]-4-azatricyclo[5.2.1.0^{2,6}]dec-8-ene-3-carboxamide], the half-maximal inhibitory concentration (IC50) is below 0.02 µM in [1], above 10 µM in series [2] (setting [12]) and at least 10 µM in series [6]. For the same molecule, the half-maximal effective concentration (EC50) in series [3], in series [4] and in series [5] was below 0.1 µM in each case. Moreover, the figures for the CC50 in series [8], in series [9] (setting [13]) and in series [10] were above 50 µM, above 10 µM and above 100 µM, respectively.
`CC(C)(C)[C@H](NC(=O)c1cnccn1)C(=O)N1C[C@H]2[C@@H]([C@H]1C(=O)N[C@H](C#N)C[C@@H]1CCNC1=O)[C@H]1C=C[C@@H]2C1` [Example 6, (1R,2S,3S,6R,7S)—N-[(1S)-1-cyano-2-[(3S)-2-oxopyrrolidin-3-yl]ethyl]-4-[(2S)-3,3-dimethyl-2-(pyrazin-2-ylformamido)butanoyl]-4-azatricyclo[5.2.1.0^{2,6}]dec-8-ene-3-carboxamide]: the half-inhibitory concentration (IC50) in [1] is 0.02 to 0.2 µM; in series [2], above 10 µM; in series [6], at least 10 µM. The half-maximal effective concentration (EC50) was below 0.1 µM in series [3], 1 to 10 µM in series [4] and 1 to 10 µM in series [5]. Moreover, the cytotoxic concentration (CC50) is above 100 µM in [7] and above 10 µM in series [9].
